Test results: patent US8067445B2, “N,N-disubstituted aminoalkylbiphenyl antagonists of prostaglandin D2 receptors” (Panmira Pharmaceuticals, LLC, priority 2008, dated 2011)

Key:
[1] = target: T1, human DP2 receptor (Homo sapiens, UniProt Q9Y5Y4); experiment: DP2/CRTH2 radioligand binding assay ([3H]PGD2); conditions: [3H]PGD2 binding, membranes of HEK293 cells expressing human DP2; read-out: hDP2
T1 construct: expressed in transfected cells
T1 sequence (Q9Y5Y4 1-395): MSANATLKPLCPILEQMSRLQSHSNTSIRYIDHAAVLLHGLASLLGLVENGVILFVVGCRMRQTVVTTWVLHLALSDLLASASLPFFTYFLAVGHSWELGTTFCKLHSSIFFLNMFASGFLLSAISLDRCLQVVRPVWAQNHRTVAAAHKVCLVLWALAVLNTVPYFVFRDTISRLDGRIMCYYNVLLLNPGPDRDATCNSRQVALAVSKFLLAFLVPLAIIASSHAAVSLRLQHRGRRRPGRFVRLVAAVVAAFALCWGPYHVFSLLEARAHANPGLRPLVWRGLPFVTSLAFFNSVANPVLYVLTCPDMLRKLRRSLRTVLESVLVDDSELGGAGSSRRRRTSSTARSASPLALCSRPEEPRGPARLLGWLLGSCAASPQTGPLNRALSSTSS
Outline: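 Membranes from HEK293 cells stably expressing recombinant human DP2 incubated 60 min at room temperature with 1 nM [3H]PGD2 and compound in pH 7.4 Hepes/MnCl2/EDTA buffer, ± 0.2% human serum albumin. Bound radioactivity measured after filtration; non-specific binding defined with 10 μM PGD2. IC50 from titration curves.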

[2] = target: T2, recombinant human CRTH2 receptor (Homo sapiens, UniProt Q9Y5Y4); experiment: GTPγS binding assay; format: biochemical; conditions: +HSA (0.2% human serum albumin), 80 nM PGD2, CHO cell membranes; read-out: hDP2 GTPγS μM (+HSA)
T2 construct: expressed in transfected cells
T2 sequence (Q9Y5Y4 1-395): T1 sequence (Q9Y5Y4 1-395)
Method: The ability of a compound to inhibit binding of GTP to DP2 is assessed via a membrane GTPγS assay. CHO cells stably expressing the recombinant human CRTH2 receptor are resuspended in 10 mM Hepes, 7.4 containing 1 mM DTT, lysed and centrifuged at 75,000×g to pellet the membranes. The membranes are resuspended in 10 mM Hepes, 7.4 containing 1 mM DTT and 10% glycerol. […] The reactions are terminated by rapid filtration through Whatman GF/B glass fibre filter plates. The filter plates are washed 3 times with 1 ml cold Assay Buffer and dried. Scintillant is then added to the plates and the radioactivity retained on the filters is determined on a Packard TopCount (Perkin Elmer). Specific binding is determined as total radioactive binding minus non-specific binding in the absence of the ligand (80 nM PGD2). IC50s were determined using Graphpad prism analysis of drug titration curves.

[3] = target: T3, human DP1 receptor (Homo sapiens, UniProt Q13258); experiment: DP1 radioligand binding assay ([3H]BWA868C, platelet membranes); conditions: [3H]BWA868C binding, human platelet membranes; read-out: hDP1
T3 construct: tissue Biological Specialty Corporation; host or cells: human platelet membranes
T3 sequence (Q13258 1-359): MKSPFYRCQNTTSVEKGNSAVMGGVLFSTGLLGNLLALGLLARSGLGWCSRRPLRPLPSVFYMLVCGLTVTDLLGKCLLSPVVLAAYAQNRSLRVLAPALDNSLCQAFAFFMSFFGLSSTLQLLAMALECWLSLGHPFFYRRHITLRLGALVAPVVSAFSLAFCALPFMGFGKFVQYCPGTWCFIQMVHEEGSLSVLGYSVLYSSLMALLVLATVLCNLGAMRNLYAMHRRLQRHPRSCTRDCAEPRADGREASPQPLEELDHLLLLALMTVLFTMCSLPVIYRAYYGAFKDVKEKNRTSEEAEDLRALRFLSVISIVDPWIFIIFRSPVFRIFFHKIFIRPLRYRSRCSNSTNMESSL
Outline: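 Human platelet membranes (20 μg protein/well) incubated 60 min at room temperature with 2 nM [3H]BWA868C and compound in 50 mM Hepes, 10 mM MnCl2, 1 mM EDTA, pH 7.4, ± 0.2% human serum albumin. Bound radioactivity measured after filtration; nonspecific binding defined with 10 μM BWA868C; IC50 from titration curves.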

Row | IC50 [1] | IC50 [2] | IC50 [3] | Compound
1 | < 300 nM | < 0.3 µM | 1000 to 30000 nM | COC(=O)N(CCc1ccccc1)Cc1cc(C(F)(F)F)ccc1-c1cc(CC(=O)O)ccc1OC [Compound 1-25, {6-Methoxy-2′-[(methoxycarbonyl-phenethyl-amino)-methyl]-4′-trifluoromethyl-biphenyl-3-yl}-acetic acid]
2 | < 300 nM | < 0.3 µM | 1000 to 30000 nM | COC(=O)N(Cc1cc(C(F)(F)F)ccc1-c1cc(CC(=O)O)ccc1OC)C1Cc2ccccc2C1 [Compound 1-26, {2′-[(Indan-2-yl-methoxycarbonyl-amino)-methyl]-6-methoxy-4′-trifluoromethyl-biphenyl-3-yl}-acetic acid]
3 | < 300 nM | < 0.3 µM | 1000 to 30000 nM | CCN(Cc1cc(C(F)(F)F)ccc1-c1cc(CC(=O)O)ccc1OC)C(=O)Nc1ccccc1Br [Compound 1-47, {2′-[3-(2-Bromo-phenyl)-1-ethyl-ureidomethyl]-6-methoxy-4′-trifluoromethyl-biphenyl-3-yl}-acetic acid]
4 | < 300 nM | < 0.3 µM | 1000 to 30000 nM | CCN(Cc1cc(C(F)(F)F)ccc1-c1cc(CC(=O)O)ccc1OC)C(=O)N1CCCC1 [Compound 1-97, (2′-{[Ethyl-(pyrrolidine-1-carbonyl)-amino]-methyl}-6-methoxy-4′-trifluoromethyl-biphenyl-3-yl)-acetic acid]
5 | < 300 nM | < 0.3 µM | 1000 to 30000 nM | CCN(Cc1cc(C(F)(F)F)ccc1-c1cc(C(C)C(=O)O)ccc1OC)C(=O)OCc1ccccc1 (stereo not drawn) [Compound 1-98, 2-{2′-[(Benzyloxycarbonyl-ethyl-amino)-methyl]-6-methoxy-4′-trifluoromethyl-biphenyl-3-yl}-propionic acid]
6 | < 300 nM | 0.3 to 1 µM | 1000 to 30000 nM | CCN(Cc1cc(C(F)(F)F)ccc1-c1cc(CC(=O)O)ccc1OC)C(=O)NC#N [Compound 1-99, [2′-(3-Cyano-1-ethyl-ureidomethyl)-6-methoxy-4′-trifluoromethyl-biphenyl-3-yl]-acetic acid]
7 | < 300 nM | 1 to 30 µM | 1000 to 30000 nM | CCN(Cc1cc(C(F)(F)F)ccc1-c1cc(CC(=O)O)ccc1OC)S(=O)(=O)c1ccc(Cl)cc1 [Compound 1-100, (2′-{[(4-Chloro-benzenesulfonyl)-ethyl-amino]-methyl}-6-methoxy-4′-trifluoromethyl-biphenyl-3-yl)-acetic acid]
8 | < 300 nM | < 0.3 µM | 1000 to 30000 nM | CCN(Cc1cc(C(F)(F)F)ccc1-c1ccc(OC)c(CC(=O)O)c1)C(=O)OCc1ccccc1 [Compound 1-107, {2′-[(Benzyloxycarbonyl-ethyl-amino)-methyl]-4-methoxy-4′-trifluoromethyl-biphenyl-3-yl}-acetic acid]
9 | < 300 nM | < 0.3 µM | 1000 to 30000 nM | CCN(Cc1cc(C(F)(F)F)ccc1-c1cc(Cl)cc(CC(=O)O)c1)C(=O)OCc1ccccc1 [Compound 1-108, {2′-[(Benzyloxycarbonyl-ethyl-amino)-methyl]-5-chloro-4′-trifluoromethyl-biphenyl-3-yl}-acetic acid]
10 | < 300 nM | < 0.3 µM | 1000 to 30000 nM | CCN(Cc1cc(C(F)(F)F)ccc1-c1cc(CC(=O)O)cc(C(F)(F)F)c1)C(=O)OCc1ccccc1 [Compound 1-109, {2′-[(Benzyloxycarbonyl-ethyl-amino)-methyl]-5,4′-bis-trifluoromethyl-biphenyl-3-yl}-acetic acid]
11 | < 300 nM | < 0.3 µM | 1000 to 30000 nM | CCN(Cc1cc(C(F)(F)F)ccc1-c1cc(CC(=O)O)ccc1OC)/C(=N/C#N)NCc1ccccc1 [Compound 1-111, [2′-(N′-Benzyl-N″-cyano-N-ethyl-guanidinomethyl)-6-methoxy-4′-trifluoromethyl-biphenyl-3-yl]-acetic acid]
12 | < 300 nM | < 0.3 µM | 1000 to 30000 nM | CCN(Cc1cc(C(F)(F)F)ccc1-c1cc(CC(=O)O)ccc1OC)/C(=N/C#N)NCC1CCCCC1 [Compound 1-112, [2′-(N′-Cyano-N″-cyclohexylmethyl-N-ethyl-guanidinomethyl)-6-methoxy-4′-trifluoromethyl-biphenyl-3-yl]-acetic acid]
13 | < 300 nM | < 0.3 µM | 1000 to 30000 nM | CCN(Cc1cc(C(F)(F)F)ccc1-c1cc(CC(=O)O)ccc1OC)/C(=N/C#N)NCC(C)(C)C [Compound 1-113, {2′-[N′-Cyano-N″-(2,2-dimethyl-propyl)-N-ethyl-guanidinomethyl]-6-methoxy-4′-trifluoromethyl-biphenyl-3-yl}-acetic acid]
14 | < 300 nM | < 0.3 µM | 1000 to 30000 nM | CCN(Cc1cc(C(F)(F)F)ccc1-c1cc(CC(=O)O)ccc1OC)/C(=N/C#N)NCc1ccc(OC)cc1 [Compound 1-114, {2′-[N′-Cyano-N-ethyl-N″-(4-methoxy-benzyl)-guanidinomethyl]-6-methoxy-4′-trifluoromethyl-biphenyl-3-yl}-acetic acid]
15 | < 300 nM | < 0.3 µM | 1000 to 30000 nM | CCN(Cc1cc(C(F)(F)F)ccc1-c1cc(CC(=O)O)ccc1OC)C(=O)CSc1ccccc1 [Compound 1-117, (2′-{[Ethyl-(2-phenylsulfanyl-acetyl)-amino]-methyl}-6-methoxy-4′-trifluoromethyl-biphenyl-3-yl)-acetic acid]
16 | < 300 nM | < 0.3 µM | 1000 to 30000 nM | CCN(Cc1cc(C(F)(F)F)ccc1-c1cc(CC(=O)O)ccc1OC)C(=O)C[S+]([O-])c1ccccc1 (stereo not drawn) [Compound 1-119, (2′-{[(2-Benzenesulfinyl-acetyl)-ethyl-amino]-methyl}-6-methoxy-4′-trifluoromethyl-biphenyl-3-yl)-acetic acid]
17 | < 300 nM | < 0.3 µM | 1000 to 30000 nM | CCN(Cc1cc(C(F)(F)F)ccc1-c1cc(CC(=O)O)ccc1OC)C(=O)CS(=O)(=O)c1ccccc1 [Compound 1-120, (2′-{[(2-Benzenesulfonyl-acetyl)-ethyl-amino]-methyl}-6-methoxy-4′-trifluoromethyl-biphenyl-3-yl)-acetic acid]
18 | < 300 nM | < 0.3 µM | 1000 to 30000 nM | CCN(Cc1cc(C(F)(F)F)ccc1-c1cc(CC(=O)O)ccc1OC)C(=O)Nc1ccccc1 [Compound 1-121, [2′-(1-Ethyl-3-phenyl-ureidomethyl)-6-methoxy-4′-trifluoromethyl-biphenyl-3-yl]-acetic acid]
19 | < 300 nM | 1 to 30 µM | 300 to 1000 nM | CCN(Cc1cccc(OC)c1-c1cccc(CC(=O)O)c1)C(=O)OCc1ccccc1 [Compound 1-122, {2′-[(Benzyloxycarbonyl-ethyl-amino)-methyl]-6′-methoxy-biphenyl-3-yl}-acetic acid]
20 | < 300 nM | 0.3 to 1 µM | 300 to 1000 nM | CCN(Cc1cccc(OC)c1-c1cccc(CC(=O)O)c1)C(=O)OCc1cc(F)cc(F)c1 [Compound 1-123, (2′-{[(3,5-Difluoro-benzyloxycarbonyl)-ethyl-amino]-methyl}-6′-methoxy-biphenyl-3-yl)-acetic acid]
21 | < 300 nM | 0.3 to 1 µM | 300 to 1000 nM | CCN(Cc1cc(C(F)(F)F)ccc1-c1ccc(Cl)c(CC(=O)O)c1)C(=O)OCc1ccccc1 [Compound 1-125, {2′-[(Benzyloxycarbonyl-ethyl-amino)-methyl]-4-chloro-4′-trifluoromethyl-biphenyl-3-yl}-acetic acid]
22 | < 300 nM | < 0.3 µM | 300 to 1000 nM | CCN(Cc1cc(C(F)(F)F)ccc1-c1cc(F)cc(CC(=O)O)c1)C(=O)OCc1ccccc1 [Compound 1-126, {2′-[(Benzyloxycarbonyl-ethyl-amino)-methyl]-5-fluoro-4′-trifluoromethyl-biphenyl-3-yl}-acetic acid]
